# Columns and labels:
# [1] = biological target: cAMP-dependent protein kinase catalytic subunit beta (Homo sapiens) (UniProt P22694); experiment: Selectivity interaction (KinomeScan (DiscoverX)) EUB0001049a PRKACB; details: at 1 µM
# [2] = biological target: Serine/threonine-protein kinase ICK (Homo sapiens, UniProt Q9UPZ9); experiment: Selectivity interaction (Kinase panel (Invitrogen, enzymatic assay)) EUB0000162b ICK
# [3] = biological target: Protein arginine N-methyltransferase 5 (Homo sapiens, UniProt O14744); details: at 10 µM
# [4] = biological target: Bone morphogenetic protein receptor type-1B (Homo sapiens, UniProt O00238); experiment: Selectivity interaction (KinomeScan (DiscoverX)) EUB0000229b BMPR1B; details: at 10 µM
# [5] = biological target: Casein kinase I isoform alpha (Homo sapiens, UniProt P48729); experiment: Selectivity interaction (KinomeScan (DiscoverX)) EUB0001079a CSNK1A1; details: at 1 µM
# [6] = biological target: T1, Serine/threonine-protein kinase N1 (Homo sapiens, UniProt Q16512); details: at 10 µM
# [7] = biological target: Receptor tyrosine-protein kinase erbB-4 (Homo sapiens, UniProt Q15303); experiment: Selectivity interaction (KinomeScan (DiscoverX)) EUB0000092b ERBB4; details: at 10 µM
# [8] = biological target: Tyrosine-protein kinase Srms (Homo sapiens) (UniProt Q9H3Y6); experiment: Selectivity interaction (KinomeScan (DiscoverX)) EUB0000092b SRMS; details: at 10 µM
# [9] = biological target: T2, Phosphatidylinositol 5-phosphate 4-kinase type-2 beta (Homo sapiens) (UniProt P78356); details: at 10 µM
# T2 sequence (whole entry): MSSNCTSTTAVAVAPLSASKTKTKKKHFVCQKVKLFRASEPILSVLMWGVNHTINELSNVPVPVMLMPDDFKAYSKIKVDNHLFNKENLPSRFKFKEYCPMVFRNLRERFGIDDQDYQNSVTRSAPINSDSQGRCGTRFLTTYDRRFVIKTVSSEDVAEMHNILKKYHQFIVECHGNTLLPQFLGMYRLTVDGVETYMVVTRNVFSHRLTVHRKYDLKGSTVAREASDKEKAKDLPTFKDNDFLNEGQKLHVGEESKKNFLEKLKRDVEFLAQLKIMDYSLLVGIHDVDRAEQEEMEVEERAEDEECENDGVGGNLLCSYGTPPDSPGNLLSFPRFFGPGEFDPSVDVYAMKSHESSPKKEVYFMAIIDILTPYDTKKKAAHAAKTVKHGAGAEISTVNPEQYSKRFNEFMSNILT
# [10] = biological target: T3, Inhibitor of nuclear factor kappa-B kinase subunit alpha (Homo sapiens) (UniProt O15111); details: at 10 µM
# T3 sequence (whole entry): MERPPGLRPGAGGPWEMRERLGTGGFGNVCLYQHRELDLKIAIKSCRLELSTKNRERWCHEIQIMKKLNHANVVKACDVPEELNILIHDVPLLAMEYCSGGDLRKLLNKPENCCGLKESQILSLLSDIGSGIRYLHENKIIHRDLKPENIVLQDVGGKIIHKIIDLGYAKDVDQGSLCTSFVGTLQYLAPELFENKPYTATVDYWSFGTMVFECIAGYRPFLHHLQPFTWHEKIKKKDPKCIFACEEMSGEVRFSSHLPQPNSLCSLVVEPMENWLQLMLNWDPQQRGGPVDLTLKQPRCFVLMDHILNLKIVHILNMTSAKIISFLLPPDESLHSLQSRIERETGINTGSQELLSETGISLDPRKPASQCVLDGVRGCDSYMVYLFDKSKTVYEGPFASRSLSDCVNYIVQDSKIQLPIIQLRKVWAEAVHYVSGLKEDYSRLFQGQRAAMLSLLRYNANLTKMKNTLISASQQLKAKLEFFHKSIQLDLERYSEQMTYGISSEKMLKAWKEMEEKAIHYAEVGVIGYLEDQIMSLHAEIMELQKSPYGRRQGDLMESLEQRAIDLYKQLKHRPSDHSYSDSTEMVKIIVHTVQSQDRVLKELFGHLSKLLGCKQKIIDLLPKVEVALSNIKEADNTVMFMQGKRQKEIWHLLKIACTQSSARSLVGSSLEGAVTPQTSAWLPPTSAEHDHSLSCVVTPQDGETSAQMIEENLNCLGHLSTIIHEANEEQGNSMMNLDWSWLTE
# [11] = biological target: T4, Dual specificity mitogen-activated protein kinase kinase 4 (Homo sapiens) (UniProt P45985); experiment: Selectivity interaction (KinomeScan (DiscoverX)) EUB0001619a MAP2K4; details: at 1 µM
# T4 sequence (whole entry): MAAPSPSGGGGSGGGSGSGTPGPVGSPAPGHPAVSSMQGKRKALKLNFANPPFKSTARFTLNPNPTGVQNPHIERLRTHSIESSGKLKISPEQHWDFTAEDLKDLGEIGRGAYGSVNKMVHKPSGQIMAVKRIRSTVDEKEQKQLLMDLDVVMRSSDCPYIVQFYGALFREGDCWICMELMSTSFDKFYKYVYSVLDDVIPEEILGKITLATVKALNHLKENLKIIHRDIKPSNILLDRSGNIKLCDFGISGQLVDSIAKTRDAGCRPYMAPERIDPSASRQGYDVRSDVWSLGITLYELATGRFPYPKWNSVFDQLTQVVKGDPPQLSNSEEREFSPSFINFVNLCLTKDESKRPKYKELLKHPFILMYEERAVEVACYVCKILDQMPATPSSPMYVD
# [12] = biological target: T5, Atypical kinase COQ8B, mitochondrial (Homo sapiens) (UniProt Q96D53); experiment: Selectivity interaction (KinomeScan (DiscoverX)) EUB0000655a ADCK4; details: at 10 µM
# T5 sequence (whole entry): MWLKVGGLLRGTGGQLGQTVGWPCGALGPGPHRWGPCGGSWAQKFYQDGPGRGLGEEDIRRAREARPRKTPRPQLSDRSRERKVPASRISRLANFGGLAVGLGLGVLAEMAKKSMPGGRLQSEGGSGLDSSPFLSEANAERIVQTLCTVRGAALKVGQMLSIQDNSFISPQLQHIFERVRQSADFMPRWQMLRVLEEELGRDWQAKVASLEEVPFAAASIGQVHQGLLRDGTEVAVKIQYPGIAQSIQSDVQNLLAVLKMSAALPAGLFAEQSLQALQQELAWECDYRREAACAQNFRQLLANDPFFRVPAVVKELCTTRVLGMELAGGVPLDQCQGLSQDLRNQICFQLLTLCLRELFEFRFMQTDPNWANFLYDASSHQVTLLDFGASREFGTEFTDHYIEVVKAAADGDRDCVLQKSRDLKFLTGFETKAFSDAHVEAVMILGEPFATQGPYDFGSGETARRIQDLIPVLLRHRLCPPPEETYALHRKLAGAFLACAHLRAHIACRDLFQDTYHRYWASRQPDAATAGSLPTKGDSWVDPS
# [13] = biological target: T3, Inhibitor of nuclear factor kappa-B kinase subunit alpha (Homo sapiens); experiment: Selectivity interaction (KinomeScan (DiscoverX)) EUB0000655a CHUK; details: at 10 µM
# [14] = biological target: Serine/threonine-protein kinase SIK1 (Homo sapiens) (UniProt P57059); experiment: Selectivity interaction (KinomeScan (DiscoverX)) EUB0000607a SIK1; details: at 10 µM
# [15] = biological target: T1, Serine/threonine-protein kinase N1; experiment: Selectivity interaction (KinomeScan (DiscoverX)) EUB0000607a PKN1; details: at 10 µM
# T1 sequence (Q16512 2-942 limits assumed): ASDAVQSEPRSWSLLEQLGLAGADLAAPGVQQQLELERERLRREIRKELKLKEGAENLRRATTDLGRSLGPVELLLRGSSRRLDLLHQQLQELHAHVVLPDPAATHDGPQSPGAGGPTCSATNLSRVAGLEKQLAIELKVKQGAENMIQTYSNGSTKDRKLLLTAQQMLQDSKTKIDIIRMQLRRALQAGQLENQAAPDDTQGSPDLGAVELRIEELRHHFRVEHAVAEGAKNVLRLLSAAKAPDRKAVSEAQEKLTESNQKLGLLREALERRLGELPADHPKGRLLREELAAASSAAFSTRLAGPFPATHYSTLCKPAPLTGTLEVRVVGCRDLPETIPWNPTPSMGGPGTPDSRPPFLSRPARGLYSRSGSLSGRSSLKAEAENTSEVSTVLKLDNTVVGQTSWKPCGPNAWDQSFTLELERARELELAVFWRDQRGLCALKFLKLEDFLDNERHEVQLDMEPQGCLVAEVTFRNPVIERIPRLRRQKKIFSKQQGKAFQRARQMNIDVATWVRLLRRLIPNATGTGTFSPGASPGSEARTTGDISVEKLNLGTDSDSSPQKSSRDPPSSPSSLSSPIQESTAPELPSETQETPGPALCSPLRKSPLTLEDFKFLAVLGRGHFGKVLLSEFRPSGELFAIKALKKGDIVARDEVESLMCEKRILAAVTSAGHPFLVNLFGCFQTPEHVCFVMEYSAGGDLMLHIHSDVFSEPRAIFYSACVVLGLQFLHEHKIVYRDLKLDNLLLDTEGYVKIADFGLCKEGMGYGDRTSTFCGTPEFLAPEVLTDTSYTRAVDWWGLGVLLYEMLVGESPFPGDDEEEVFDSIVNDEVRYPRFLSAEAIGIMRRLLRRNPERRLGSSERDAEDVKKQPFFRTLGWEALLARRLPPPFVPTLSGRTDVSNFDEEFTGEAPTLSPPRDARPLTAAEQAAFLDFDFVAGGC
# Sequence of Protein arginine N-methyltransferase 5 (O14744 whole entry): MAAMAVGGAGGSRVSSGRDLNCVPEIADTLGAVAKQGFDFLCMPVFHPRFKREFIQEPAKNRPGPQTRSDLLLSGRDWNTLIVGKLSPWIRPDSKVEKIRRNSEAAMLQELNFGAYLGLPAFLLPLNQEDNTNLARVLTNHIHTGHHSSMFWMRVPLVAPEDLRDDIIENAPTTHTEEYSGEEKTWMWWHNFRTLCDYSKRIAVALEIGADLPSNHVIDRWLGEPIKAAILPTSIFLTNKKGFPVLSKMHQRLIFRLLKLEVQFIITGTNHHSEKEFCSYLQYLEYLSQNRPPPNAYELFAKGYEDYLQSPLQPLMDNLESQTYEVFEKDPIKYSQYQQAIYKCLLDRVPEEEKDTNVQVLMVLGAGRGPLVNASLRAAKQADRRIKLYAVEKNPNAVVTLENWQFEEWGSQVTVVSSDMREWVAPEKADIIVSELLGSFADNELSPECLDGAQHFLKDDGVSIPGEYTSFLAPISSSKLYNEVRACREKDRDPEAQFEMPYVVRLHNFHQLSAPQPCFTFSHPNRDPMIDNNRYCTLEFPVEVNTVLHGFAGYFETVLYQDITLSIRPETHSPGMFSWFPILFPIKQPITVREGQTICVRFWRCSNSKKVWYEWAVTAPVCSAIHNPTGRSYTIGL
# Sequence of Casein kinase I isoform alpha (P48729 2-337 limits assumed): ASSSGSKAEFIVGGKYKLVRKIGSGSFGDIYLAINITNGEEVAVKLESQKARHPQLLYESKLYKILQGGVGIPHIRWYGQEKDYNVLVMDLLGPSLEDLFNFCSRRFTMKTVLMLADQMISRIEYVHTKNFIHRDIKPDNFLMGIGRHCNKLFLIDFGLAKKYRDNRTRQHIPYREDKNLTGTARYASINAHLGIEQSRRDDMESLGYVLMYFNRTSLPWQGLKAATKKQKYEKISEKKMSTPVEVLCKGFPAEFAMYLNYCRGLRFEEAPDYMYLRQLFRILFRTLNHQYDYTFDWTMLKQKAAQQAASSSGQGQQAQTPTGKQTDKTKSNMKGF
# Sequence of Bone morphogenetic protein receptor type-1B (O00238 whole entry, canonical isoform): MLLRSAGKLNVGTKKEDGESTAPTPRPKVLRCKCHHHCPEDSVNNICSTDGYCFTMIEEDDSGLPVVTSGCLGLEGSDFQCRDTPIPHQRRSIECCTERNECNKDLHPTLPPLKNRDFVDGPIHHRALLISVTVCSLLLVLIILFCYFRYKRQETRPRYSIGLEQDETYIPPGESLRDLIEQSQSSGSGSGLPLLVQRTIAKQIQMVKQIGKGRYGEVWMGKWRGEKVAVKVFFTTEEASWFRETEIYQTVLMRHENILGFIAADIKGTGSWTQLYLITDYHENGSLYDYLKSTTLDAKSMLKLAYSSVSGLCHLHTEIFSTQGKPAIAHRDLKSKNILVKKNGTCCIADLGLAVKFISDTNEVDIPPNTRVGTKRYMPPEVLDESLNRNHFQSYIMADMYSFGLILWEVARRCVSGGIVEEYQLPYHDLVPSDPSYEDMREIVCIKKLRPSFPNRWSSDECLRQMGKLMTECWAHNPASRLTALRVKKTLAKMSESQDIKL
# Sequence of Tyrosine-protein kinase Srms (Homo sapiens) (Q9H3Y6 whole entry): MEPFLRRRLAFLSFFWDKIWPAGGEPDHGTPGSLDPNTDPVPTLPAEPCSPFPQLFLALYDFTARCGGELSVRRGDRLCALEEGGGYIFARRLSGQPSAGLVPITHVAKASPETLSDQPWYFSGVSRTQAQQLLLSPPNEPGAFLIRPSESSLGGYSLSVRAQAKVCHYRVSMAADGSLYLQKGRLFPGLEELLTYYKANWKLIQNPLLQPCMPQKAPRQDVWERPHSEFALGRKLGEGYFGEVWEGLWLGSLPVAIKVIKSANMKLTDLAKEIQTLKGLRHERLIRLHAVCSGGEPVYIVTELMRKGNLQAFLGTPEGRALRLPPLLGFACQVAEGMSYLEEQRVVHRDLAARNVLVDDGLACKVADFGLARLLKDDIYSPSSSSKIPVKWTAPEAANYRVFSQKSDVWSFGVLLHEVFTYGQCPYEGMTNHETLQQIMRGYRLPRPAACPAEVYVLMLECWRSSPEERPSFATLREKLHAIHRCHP
# Sequence of Receptor tyrosine-protein kinase erbB-4 (Q15303 whole entry): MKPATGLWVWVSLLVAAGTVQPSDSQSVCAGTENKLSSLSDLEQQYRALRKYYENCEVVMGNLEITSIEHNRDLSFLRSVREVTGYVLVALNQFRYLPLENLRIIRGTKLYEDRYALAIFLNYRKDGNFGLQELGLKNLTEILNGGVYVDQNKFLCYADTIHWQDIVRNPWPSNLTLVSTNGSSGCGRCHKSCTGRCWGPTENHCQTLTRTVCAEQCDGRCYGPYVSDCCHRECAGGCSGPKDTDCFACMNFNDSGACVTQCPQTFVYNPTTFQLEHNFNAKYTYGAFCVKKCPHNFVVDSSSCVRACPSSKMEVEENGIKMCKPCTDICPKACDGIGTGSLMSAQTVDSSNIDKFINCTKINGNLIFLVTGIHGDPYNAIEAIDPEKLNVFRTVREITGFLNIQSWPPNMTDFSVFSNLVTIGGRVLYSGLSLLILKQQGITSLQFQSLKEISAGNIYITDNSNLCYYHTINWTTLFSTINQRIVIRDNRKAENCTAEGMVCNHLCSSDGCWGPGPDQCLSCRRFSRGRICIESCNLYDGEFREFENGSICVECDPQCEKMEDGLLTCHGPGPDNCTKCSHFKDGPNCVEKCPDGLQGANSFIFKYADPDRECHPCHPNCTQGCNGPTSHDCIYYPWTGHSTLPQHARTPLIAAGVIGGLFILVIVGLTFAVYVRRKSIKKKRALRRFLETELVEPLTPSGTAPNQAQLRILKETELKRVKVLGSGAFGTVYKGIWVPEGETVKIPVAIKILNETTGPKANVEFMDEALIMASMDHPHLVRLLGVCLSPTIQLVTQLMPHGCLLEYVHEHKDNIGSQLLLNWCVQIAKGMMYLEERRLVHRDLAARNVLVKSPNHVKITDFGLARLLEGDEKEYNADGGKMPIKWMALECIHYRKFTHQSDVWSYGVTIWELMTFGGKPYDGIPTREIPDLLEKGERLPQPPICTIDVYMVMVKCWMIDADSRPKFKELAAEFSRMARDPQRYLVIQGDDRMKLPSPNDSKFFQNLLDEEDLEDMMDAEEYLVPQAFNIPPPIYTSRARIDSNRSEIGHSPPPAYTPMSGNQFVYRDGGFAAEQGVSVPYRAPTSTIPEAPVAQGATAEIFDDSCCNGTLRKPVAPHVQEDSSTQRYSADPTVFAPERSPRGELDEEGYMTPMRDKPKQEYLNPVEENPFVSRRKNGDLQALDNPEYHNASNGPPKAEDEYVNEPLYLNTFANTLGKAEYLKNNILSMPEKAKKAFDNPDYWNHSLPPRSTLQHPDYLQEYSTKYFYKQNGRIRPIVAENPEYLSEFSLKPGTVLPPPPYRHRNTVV
# Sequence of Serine/threonine-protein kinase ICK (Q9UPZ9 whole entry): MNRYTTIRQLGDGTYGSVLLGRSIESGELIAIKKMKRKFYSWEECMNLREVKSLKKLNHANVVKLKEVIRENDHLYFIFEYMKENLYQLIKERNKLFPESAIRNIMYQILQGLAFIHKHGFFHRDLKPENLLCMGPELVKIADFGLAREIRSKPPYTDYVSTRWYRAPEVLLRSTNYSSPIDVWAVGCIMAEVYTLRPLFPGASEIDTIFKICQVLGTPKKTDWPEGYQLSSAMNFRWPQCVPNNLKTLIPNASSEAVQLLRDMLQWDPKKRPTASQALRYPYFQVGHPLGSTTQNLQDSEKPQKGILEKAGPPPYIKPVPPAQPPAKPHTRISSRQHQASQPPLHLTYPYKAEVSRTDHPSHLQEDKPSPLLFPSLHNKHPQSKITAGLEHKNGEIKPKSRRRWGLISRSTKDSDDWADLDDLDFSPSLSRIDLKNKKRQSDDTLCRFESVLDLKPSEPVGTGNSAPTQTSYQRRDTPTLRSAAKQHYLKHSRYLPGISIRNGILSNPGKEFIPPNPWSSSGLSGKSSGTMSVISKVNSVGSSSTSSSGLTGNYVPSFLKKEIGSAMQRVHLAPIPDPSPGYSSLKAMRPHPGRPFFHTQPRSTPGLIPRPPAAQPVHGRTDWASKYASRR
smiles,measurement,setting,value
COc1cc(Nc2nc(C)cc(-c3cnn4nc(OC)ccc34)n2)cc(C(F)(F)F)c1,% of control,[1],100%
CN(C)C(=O)Cn1cc(-c2ccc(-c3cncc4ccccc34)cc2)cn1,IC50,[2],2390 nM
CNCCN1CCC(c2cc(CN(C)C(=O)c3cccc(Oc4ccccc4)c3)ccn2)CC1,% activity,[3],> 90%
COc1cc(N(C)c2ccnc3ccc(C(F)(F)F)cc23)cc(OC)c1OC,% binding,[4],73%
Nc1cnc(N2CCc3cc(S(=O)(=O)Nc4c(F)cc(Cl)cc4F)cc(N4CCCC4=O)c32)nc1 [TP-020n],% of control,[5],100%
CCN(CC)CCCCNc1ncc2cc(-c3cc(OC)cc(OC)c3)c(NC(=O)NC(C)(C)C)nc2n1,% of control,[6],100%
CCC(=O)N1CCN(c2ccc(-n3c(=O)ccc4cnc5ccc(-c6cnc7ccccc7c6)cc5c43)cc2C(F)(F)F)CC1,% of control,[7],100%
same,% of control,[8],92%
Cc1cc([C@@H](C)Nc2ccccc2C(=O)O)c2nc(N3CCOCC3)cc(=O)n2c1 [AZD-6482],% of control,[9],100%
same,% of control,[10],100%
N#Cc1cccc(-c2c[nH]c3ncnc(N4CCOCC4)c23)c1,% of control,[11],100%
CN(C)CCOc1ccc(-c2nc(-c3ccncc3)c(-c3ccc4c(c3)CC/C4=N\O)[nH]2)cc1,% of control,[12],45%
same,% of control,[13],92%
CNC(=O)Nc1ccc(-c2nc(N3CC4CCC(C3)O4)c3cnn(C4CCC5(CC4)OCCO5)c3n2)cc1,% of control,[14],86%
same,% of control,[15],100%
